From PMC6277198, “Molecular basis for activation of lecithin:cholesterol acyltransferase by a compound that increases HDL cholesterol” (eLife, 2018) come the findings set out here.

Experiment [1] deals with LPLA2 chimeric variants (S33Y, I53G, and S33Y/I53G). Kind of experiment: Differential scanning fluorimetry. It is filed as binding. (DSF heats the sample and reads unfolding from a dye or from intrinsic fluorescence.)
Experiment [2] addresses T1, LCAT Y51S/G71I (Homo sapiens, UniProt P04180, G95I/Y75S).
T1 construct: hydrolysis of 4-methylumbelliferyl palmitate (MUP) by full-length LCAT; made in house; host or cells: HEK293F (transient transfection, secreted)
T1 sequence (P04180 25-440 Y75S/G95I): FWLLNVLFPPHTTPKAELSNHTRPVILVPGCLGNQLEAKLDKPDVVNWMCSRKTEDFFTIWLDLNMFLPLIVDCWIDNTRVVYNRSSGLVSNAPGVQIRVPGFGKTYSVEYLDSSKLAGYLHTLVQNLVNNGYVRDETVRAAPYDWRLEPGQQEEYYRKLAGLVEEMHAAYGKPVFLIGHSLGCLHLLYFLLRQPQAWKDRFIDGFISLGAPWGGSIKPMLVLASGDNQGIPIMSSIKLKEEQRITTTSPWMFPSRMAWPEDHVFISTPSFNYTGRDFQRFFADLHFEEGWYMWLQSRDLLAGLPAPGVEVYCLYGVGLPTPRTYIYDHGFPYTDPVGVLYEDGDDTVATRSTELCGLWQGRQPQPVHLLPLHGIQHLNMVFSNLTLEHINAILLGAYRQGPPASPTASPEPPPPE
Kind of experiment: DHE acyltransferase assay with peptide-based HDLs. It is filed as biochemical. The procedure:
(§1) Peptide-based HDLs were used in this assay as there is no difference between peptide HDLs and ApoA-I HDLs in both HDL binding and acyltransferase assays ([Manthei et al., 2017]). The peptide HDLs were made using the ESP24218 peptide with the sequence […] ([Dassuex et al., 1999]; [Li et al., 2015]) with a DPPC:POPC:DHE ratio of 47:47:6 as previously described ([Manthei et al., 2017]). The assay was performed in 384-well low volume black microplates (Corning 4514) with a total assay volume of 16 μL. In each reaction, LCAT was diluted in assay buffer to 15 μg mL^−1 in the presence of either 1% DMSO or 10 μM 2 with 1% DMSO. Compound 2 was used in this assay because it has lower background fluorescence than 1. The DHE HDLs were diluted in 1X PBS with 1 mM EDTA and 5 mM β-mercaptoethanol. 8 μL of the HDLs were added to the plate, and the reactions were initiated with 8 μL of LCAT, so that LCAT was assayed at 7.5 μg mL^−1 with and without 5 μM compound with a range of DHE concentrations from 0 to 50 μM. The reactions were stopped after 25 min at 37 °C with the addition of 4 μL of stop solution (1X PBS with 1 mM EDTA, 5 U mL^−1 cholesterol oxidase (COx), and 7% Triton X100). Following the addition of stop solution, the plates were incubated for another 60 min at 37 °C to allow for the COx to react. After the plates were re-equilibrated at room temperature, fluorescence was determined on a SpectraMax plate reader with excitation at 325 nm and emission at 425 nm, with a 420 nm cutoff. Reactions without LCAT were used for background subtraction, and reactions without LCAT and stop solution lacking COx were used to generate a standard curve for DHE. Reactions were performed in triplicate with three independent experiments per LCAT variant. Data were processed via background subtraction to remove excess fluorescence that results from the higher concentrations of DHE. […] Outliers were removed using automatic outlier elimination within Prism. For statistical analysis, the Vmax for each variant was compared to WT using a one-way analysis of variance followed by Tukey’s multiple comparisons post-test in GraphPad Prism.
(§2) To determine EC50 values, compound 2 was titrated from 0.004 to 10 μM, and the DHE concentration was set at 50 μM. LCAT was diluted in assay buffer and compound 2 dilutions were made with assay buffer containing 5.3% DMSO. 1.5 μL compound was added, then 6.5 μL LCAT, followed by 8 μL DHE. Dilutions were adjusted so that LCAT was assayed at 7.5 μg mL^−1, as above. All values were background subtracted to buffer with the same concentration of compound 2. A standard curve was included in one experiment with DHE from 0 to 50 μM in order to adjust the final fluorescence values to a rate by dividing by the slope of the line and time (25 min), as above. Outliers were removed using automatic outlier elimination within Prism. For statistical analysis, the EC50 for each variant was compared to WT using a one-way analysis of variance followed by Tukey’s multiple comparisons post-test in GraphPad Prism.

Experiment [3] addresses T2, LCAT R244A (Homo sapiens, UniProt P04180, R268A).
T2 construct: hydrolysis of 4-methylumbelliferyl palmitate (MUP) by full-length LCAT; made in house; host or cells: HEK293F (transient transfection, secreted)
T2 sequence (P04180 25-440 R268A): T1 sequence (P04180 25-440 Y75S/G95I) with S51Y, I71G, R244A
In words: DHE acyltransferase assay with peptide-based HDLs. The class given is biochemical. The procedure: as §1, §2

Experiment [4] addresses T3, LCAT R244H (Homo sapiens, UniProt P04180, R268H).
T3 construct: hydrolysis of 4-methylumbelliferyl palmitate (MUP) by full-length LCAT; made in house; host or cells: HEK293F (transient transfection, secreted)
T3 sequence (P04180 25-440 R268H): T1 sequence (P04180 25-440 Y75S/G95I) with S51Y, I71G, R244H
Kind of experiment: DHE acyltransferase assay with peptide-based HDLs. The class given is biochemical. The procedure: as §1, §2

[5] abbreviates: compound 2 titrated from 0.004 to 10 μM, DHE 50 μM.
Setting [6] is: highest concentration tested, 10 μM compound 2.

Numbering of substitutions follows the chain as printed.

For `N#Cc1cnc(N2CCC(c3n[nH]c4c3C(O)(C(F)(F)F)CC(=O)N4)CC2)cc1C(F)(F)F` (stereo not shown) [compound 1, 6-(4-(4-Hydroxy-6-oxo-4-(trifluoromethyl)−4,5,6,7-tetrahydro-1H-pyrazolo[3,4-b]pyridin-3-yl)piperidin-1-yl)−4-(trifluoromethyl)nicotinonitrile], the “Thermal stabilization (DSF)” value in experiment [1] is on record as “unable to be stabilized”.
In the case of `O=C1CC(O)(C(F)(F)F)c2c(C3CCN(c4cnc(C(F)(F)F)cn4)CC3)n[nH]c2N1` (stereo not shown) [compound 2, 4-Hydroxy-4-(trifluoromethyl)−3-(1-(5-(trifluoromethyl)pyrazin-2-yl)piperidin-4-yl)−4,5-dihydro-1H-pyrazolo[3,4-b]pyridin-6(7H)-one], the “acyltransferase activity in the presence of compound 2” value in experiment [2] (Y51S/G71I variant) is “failed to increase activity”. Further, the “DHE assay EC50” value in experiment [2] (Y51S/G71I, compound 2 titrated from 0.004 to 10 μM, DHE 50 μM) is “no effect”. In addition, the EC50 in experiment [3] (setting [5]) came to 0.76 ± 0.2 µM; in experiment [4] (setting [5]), 4.6 ± 2 µM. In addition, the results for the acyltransferase rate in experiment [3] (setting [6]) and in experiment [4] (setting [6]) were 18 µM/h and 26 µM/h, respectively.

The term EC50 denotes the concentration that produces a half-maximal response. Higher therefore signals a need for much substance.
